From PMC10743537 (2023)

System: nicked decamer duplex 3 (DNA, duplex, PEG(6) tether between positions 5 and 6 (C10/G11 in paper numbering) and between positions 15 and 16 (C20/G1); nick between T5 (3' end, position 20) and G6 (5' end, position 1)) GTCGCGCGACAACGCGCGTT
Assay: NMR diffusion (DOSY)
Settings: 25 mM NaCl, 25 mM K3PO4; D2O buffer, pH 6.0, 10 °C; 0.60 mM each; 1:1 model assumed, self-association neglected

Row | SMILES | Ka
1 | CCc1c2c(nc3ccc(O)cc13)-c1cc3c(c(=O)n1[C@H]2CN1CCCC1)COC(=O)[C@]3(O)CC | 76 mM⁻¹
2 | CCc1c2c(nc3ccc(O)cc13)-c1cc3c(c(=O)n1[C@@H]2CN1CCCC1)COC(=O)[C@]3(O)CC | 150 mM⁻¹
